{"source": "patent US7807777B2", "about": "“Marker peptide for alzheimer's disease” (Immuno-Biological Laboratories Co., Ltd., priority 2003, dated 2010)", "key": {"presenilin [1]": {"test_system": "presenilin", "experiment": "Western blotting of cell lysates of HEK293 cells expressing APP695, Alcα, Alcβ or Alcγ, with or without presenilin inhibitor", "assay_type": "cell-based", "conditions": "1 μl of 1 mM DMSO solution per 1 ml culture medium, 24 hrs", "experimental": "A DNA encoding Alcα, Alcβ, Alcγ, or APP695 (an isoform of human APP consisting of 695 amino acids) was inserted into a mammalian expression vector pcDNA3.1 (Invitrogen).\n(§1) HEK293 cells were seeded in DMEM (D5796: Sigma) containing 10% fetal bovine serum in a 6-well culture plate (area of base: 10 cm^2) and transfected with the expression vector prepared above by using a transfection reagent (LipofectAMINE 2000: Invitrogen). As a control, HEK293 cells were similarly transfected with an empty pcDNA3.1 vector.\nOne microliter of a DMSO solution containing 1 mM of a presenilin inhibitor L-685,458 (Calbiochem) was added to 1 ml of the culture medium. After the incubation for 24 hrs, a sample of the culture medium was taken. As a control, an equal quantity of DMSO instead of the L-685,458 solution was added to the culture medium and similarly incubated. Then, a sample of the culture medium was taken. The sample of the culture medium was added to 1 ml of HBST buffer (10 mM HEPES of pH 7.4, 150 mM sodium chloride, 0.5% Triton X-100, 5 μg/ml chymostatin, 5 μg/ml leupeptin, and […]) for extracting proteins of the cells. The solubilized cells were centrifuged (12000×g, 10 min) and supernatant was collected to recover the solubilized components. The solubilized components (7.5 μl) were added to 7.5 μl of a sample-buffer mixture (a mixture of 5 μl of 5×SDS sample buffer and 2.5 μl of 8 M urea solution) and boiled for 5 min. This sample was subjected to SDS-PAGE of 8/15% 2-stage gel and then the proteins were transferred on a nitrocellulose membrane for conducting Western blotting. The SDS-PAGE was performed according to the general method of Laemmli. As the primary antibody, an anti-APP cytoplasmic domain antibody (G369, 1/2000 dilution), anti-Alcα antibody (UT83, 0.3 μg/ml), anti-Alcβ antibody (UT99, 0.5 μg/ml), and anti-Alcγ antibody (UT105, 1/500 dilution) were used. The detection was performed by using an ECL kit (Pharmacia). The UT99 and UT105 are antibodies recognizing the C-terminals of Alcβ and Alcγ, respectively. FIG. 6 and FIG. 7A to C show the results."}, "presenilin [2]": {"test_system": "presenilin", "experiment": "Incubation of membrane fragments of HEK293 cells expressing Alcα, Alcβ or Alcγ, Western blotting with anti-Alc antibodies", "assay_type": "biochemical", "conditions": "Alcβ and Alcγ, final concentration 1 μM, 37° C. for 1 or 3 hrs, FIG. 8A to C", "experimental": "DNAs encoding Alcα, Alcβ, or Alcγ were each inserted into a mammalian expression vector pcDNA3.1 (Invitrogen).\nas §1, with “DMEM” for “DMEM (D5796: Sigma)”, “a 10-cm” for “a 6-well”, “base: 60” for “base: 10”, “were” for “were similarly”\nAfter the incubation for 24 hrs, the culture medium was removed and the cells were washed with ice-cooled PBS. Then, 10 ml of PBS was added again. The cells were detached from the plate by pipetting and transferred into a 15 ml Falcon tube. The cells were collected by centrifugation (1500 rpm, 10 min, low-speed refrigerated centrifuge: Beckmann) as a pellet of the cells. One milliliter of buffer D (0.25 M sucrose, 10 mM triethanolamine-acetate of pH 7.8, 5 μg/ml chymostatin, 5 μg/ml leupeptin, and 5 μg/ml pepstatin) was added to the pellet of the cells, and the cells were broken by 12 passages through a 27 G needle. Then, the broken cells were centrifuged with a TOMY TMA-6 rotor at 3000 rpm (1000×g) for 10 min at 4° C. to remove unbroken cells and nuclei and to obtain a nucleus-removed cell homogenate. […]"}}, "data": [{"compound": "CC(C)C[C@H](NC(=O)[C@H](Cc1ccccc1)C[C@@H](O)[C@H](Cc1ccccc1)NC(=O)OC(C)(C)C)C(=O)N[C@@H](Cc1ccccc1)C(N)=O", "note": "[L-685,458]", "values": [{"measurement": "C-terminal fragment (CTFα) of APP in the cell lysate", "setting": "presenilin [1]; HEK293 cells expressing APP695, FIG. 6", "result": "a large amount of the C-terminal fragment (CTFα) was detected in the cell lysate only when the presenilin inhibitor (L-685,458) was added"}, {"measurement": "C-terminal fragment (CTF1) of Alcα in the cell lysate", "setting": "presenilin [1]; HEK293 cells expressing Alcα, FIG. 7A", "result": "C-terminal fragments (CTF1) were detected only when the presenilin inhibitor was added"}, {"measurement": "C-terminal fragment of Alcβ in the cell lysate", "setting": "presenilin [1]; HEK293 cells expressing Alcβ, FIG. 7B", "result": "detected even when the presenilin inhibitor was not added"}, {"measurement": "C-terminal fragment (CTF1) of Alcγ in the cell lysate", "setting": "presenilin [1]; HEK293 cells expressing Alcγ, FIG. 7C", "result": "C-terminal fragments (CTF1) were detected only when the presenilin inhibitor was added"}, {"measurement": "fragments (such as Alcα-ICD) containing the C-terminal of each Alc", "setting": "presenilin [2]", "result": "such fragments were not detected"}]}]}
